15 compounds from PMC9413271, “Anti-Obesity Evaluation of Averrhoa carambola L. Leaves and Assessment of Its Polyphenols as Potential α-Glucosidase Inhibitors” (Molecules, 2022) can be followed below.

For orientation: IC50 means the concentration at which inhibition is half-maximal.

This assay deals with α-glucosidase. The assay is described as follows: In vitro α-glucosidase inhibitory assay. In kind it is biochemical. Further details: key to IC50 (α-glucosidase inhibition), dash = inactive: (-) indicates inactive compounds. The conditions noted are these: for IC50 / IC50 (α-glucosidase inhibition), dash = inactive: sucrose substrate, 37 °C, 30 min, n = 3; for IC50: read-out: IC50 (α-glucosidase inhibition); for α-glucosidase inhibitory activity (in words): in vitro. The protocol: The assay of α-glucosidase inhibitory activity of compounds was adopted from. Briefly, 100 μL of DMSO and 100 μL of α-glucosidase enzyme (5 U/mL in 0.15 M HEPES buffer) were added to 100 μL substrate (0.1 M sucrose solution dissolved into 0.15 M HEPES buffer). The mixture was vortexed for 5 sec and then incubated at 37 °C for 30 min to allow for enzymatic reaction. After incubation, the reaction was stopped by heating at 100 °C for 10 min in a block incubator. The formation of glucose was determined by means of glucose oxidase method, using a BF-5S Biosensor (Oji Scientific Instruments, Hyogo, Japan). Mathematically, α-glucosidase inhibitory activity of each sample was calculated according to this equation: (Average value of control (Ac) − average value of the sample (As))/Ac × 100.
The IC50 values were calculated from plots of log concentration of inhibitor concentration against the percentage inhibition curves, using Microsoft Excel 2016. The data were expressed as mean ± standard deviation (SD) of at least three independent experiments (n = 3).

“Also recorded” adds a separate entry of the source.

For `O=c1cc(-c2ccc(O)cc2)oc2cc(O)cc(O)c12` [Apigenin, reference compound], the IC50 stood at 85.6 ± 0.01 µM.
Turning to `C[C@H]1O[C@@H](Oc2cc3oc(-c4ccc(O)cc4)cc(=O)c3c(O)c2[C@H]2C[C@@H](O)[C@@H](O)[C@@H](CO)O2)[C@H](O)[C@@H](O)[C@@H]1O` [Compound 1, apigenin 6-C-(2-deoxy-β-D-galactopyranoside)-7-O-β-D-quinovopyranoside], the IC50 came to 613 µM.
Take `CC1OC(OC2C(c3c(O)cc4oc(-c5ccc(O)c(O)c5)cc(=O)c4c3O)OC(C)C(O)C2O)C(O)C(O)C1O` [Compound 2, luteolin 6-C-α-L-rhamnopyranosyl-(1-2)-β-D-fucopyranoside]: the “α-glucosidase inhibitory activity (in words)” value is “highest inhibitory activity among all isolated flavone glycosides; also recorded: Potent inhibition” and the IC50 stood at 328 µM.
`O=c1cc(-c2ccc(O)cc2)oc2cc(O)c(C3OC(CO)C(O)C(O)C3O)c(O)c12` [Compound 3, apigenin 6-C-β-D-galactopyranoside]: the “α-glucosidase inhibitory activity (in words)” value is reported as “Potent inhibition” and the concentration for half-maximal inhibition (IC50) turned out to be 439 µM.
For `CC1OC(OC2C(c3c(O)cc4oc(-c5ccc(O)cc5)cc(=O)c4c3O)OC(C)C(O)C2O)C(O)C(O)C1O` [Compound 4, apigenin 6-C-α-L-rhamnopyranosyl-(1-2)-β-L-fucopyranoside], the “α-glucosidase inhibitory activity (in words)” value was “Potent inhibition” and the IC50 came out at 390 µM.
For `CC1OC(c2c(O)cc(OC3OC(CO)C(O)C3O)c(C(=O)CCc3ccc(O)cc3)c2O)C(O)C(O)C1OC1OC(CO)C(O)C(O)C1O` (centres unmarked) [Compound 5, carambolaside M], the “α-glucosidase inhibitory activity (in words)” value was “inactive” and the “IC50 (α-glucosidase inhibition), dash = inactive” value (from here on “IC50 (α-glucosidase inhibition)”) is recorded as “-”.
For `CC1OC(OC2C(Oc3cc(O)c(C4OC(C)C(O)C(O)C4O)c(O)c3C(=O)CCc3ccc(O)cc3)OC(CO)C2O)C(O)C(O)C1O` (centres unmarked) [Compound 6, carambolaside Ia] the same measures were “inactive” and “-”.
Turning to `CC1OC(OC2C(Oc3cc(O)c(C4OC(C)C(O)C(OC5OC(C)C(O)C(O)C5O)C4OC(=O)C=Cc4ccccc4)c(O)c3C(=O)CCc3ccc(O)cc3)OC(CO)C2O)C(O)C(O)C1O` (centres unmarked) [Compound 7, carambolaside J], the “α-glucosidase inhibitory activity (in words)” value was “inactive” and the “IC50 (α-glucosidase inhibition)” value is on record as “-”.
For `CC(=O)OC1C(C)OC(c2c(O)cc(OC3OC(CO)C(O)C3OC3OC(C)C(O)C(O)C3O)c(C(=O)CCc3ccc(O)cc3)c2O)C(OC(=O)C=Cc2ccccc2)C1OC1OC(C)C(O)C(O)C1O` [Compound 8, phloretin 3′-C-(2-O-(E)-cinnamoyl-3-O-β-D-fucopyranosyl-4-O-acetyl)-β-D-fucopyranosyl-6′-O-β-D fucopyranosyl-(1/2)-α-L arabinofuranoside] the same measures were “inactive” and “-”.
For `CC1OC(OC2C(Oc3cc(O)c(C4OC(C)C(O)C(O)C4OC(=O)C=Cc4ccccc4)c(O)c3C(=O)CCc3ccc(O)cc3)OC(CO)C2O)C(O)C(O)C1O` (centres unmarked) [Compound 9, carambolaside I], the “α-glucosidase inhibitory activity (in words)” value is “inactive” and the “IC50 (α-glucosidase inhibition)” value is given as “-”.
For `CC(=O)OC1C(C)OC(c2c(O)cc(OC3OC(CO)C(O)C3OC3OC(C)C(O)C(O)C3O)c(C(=O)CCc3ccc(O)cc3)c2O)C(OC(=O)C=Cc2ccc(O)cc2)C1OC1OC(C)C(O)C(O)C1O` (centres unmarked) [Compound 11, Mix of 4″-O-acetyl-carambolaside P and 4″-O-acetyl-carambolaside O] the same measures were “inactive” and “-”.
Consider `CC1OC(OC2C(Oc3cc(O)c(C4OC(C)C(O)C(O)C4OC(=O)C=Cc4ccc(O)cc4)c(O)c3C(=O)CCc3ccc(O)cc3)OC(CO)C2O)C(O)C(O)C1O` (centres unmarked) [Compound 12, carambolaside Q], for which the “α-glucosidase inhibitory activity (in words)” value was “relatively strong activity; also recorded: Potent inhibition” and the 50% inhibitory concentration (IC50) worked out at 323.6 ± 0.06 µM.
Take `O=c1cc(-c2ccc(O)c(O)c2)oc2cc(O)cc(O)c12` [Luteolin, reference compound]: the half-maximal inhibitory concentration (IC50) is 48.2 ± 0.02 µM.
For the compound `O=C(CCc1ccc(O)cc1)c1c(O)cc(O)cc1O` [Phloretin, reference compound], the IC50 is 110.4 ± 0.06 µM.
Turning to `O=C(CCc1ccc(O)cc1)c1c(O)cc(O)cc1O[C@@H]1O[C@H](CO)[C@@H](O)[C@H](O)[C@H]1O` [Phloridzin, phloretin-2′-glucose, reference compound], the “α-glucosidase inhibitory activity (in words)” value was “moderate inhibitory activity” and the IC50 came to 853.1 ± 0.02 µM.
